These are literature values, as cited in patent US20200289412A1, “BIOENHANCED SPIRULINA LOZENGE FORMULATION” (priority 2019, published 2020).

One data set relates to tumor cell. To be noted: time-dependent; not directly killing cancer cells.
For data set [1], the system named is human immunodeficiency virus-1 virus (HIV-1).

For the substance Spirulina polysaccharide [PSP], the tumor cell growth entry in the data set with tumor cell is “inhibiting tumor cell growth”.
For calcium spirulan [Ca-Sp], the in vitro replication result (in the data set with influenza A virus; in the data set on mumps virus; with measles virus; in data set [1]; in the data set on Herpes simplex type I; in the data set with human cytomegalovirus) was “inhibits the in vitro replication” in each case.
